What follows are compounds tested against T1, hCNPY4 (FLAG-tagged human Canopy4) (Homo sapiens, UniProt Q8N129) (assay: fluorescence polarization, direct titration).
T1 sequence (Q8N129 22-248): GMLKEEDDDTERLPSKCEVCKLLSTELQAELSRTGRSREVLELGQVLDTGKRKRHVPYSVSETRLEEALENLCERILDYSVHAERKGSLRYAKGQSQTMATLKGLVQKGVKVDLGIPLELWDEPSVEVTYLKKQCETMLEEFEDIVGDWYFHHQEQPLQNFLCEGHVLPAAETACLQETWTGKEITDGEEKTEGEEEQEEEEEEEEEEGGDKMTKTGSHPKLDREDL
Format: binding
Compound `CCCCCCCCCCCCC/C=C/[C@@H](O)[C@H](CO)NC(=O)CCCCCNc1ccc([N+](=O)[O-])c2nonc12` [NBD-ceramide 6:0] has a Kd of 80 ± 25 nM. Work on `CCCCCCCCCCCCC/C=C/[C@@H](O)[C@H](COP(=O)(O)O)NC(=O)CCCCCNc1ccc([N+](=O)[O-])c2nonc12` [NBD-ceramide-1-phosphate 6:0] yielded a Kd of 130 ± 40 nM. `CCCCCCCCCCCCC/C=C/[C@@H](O)[C@H](COP(=O)([O-])OCC[N+](C)(C)C)NC(=O)CCCCCNc1ccc([N+](=O)[O-])c2nonc12` [NBD-sphingomyelin 6:0] showed a Kd of 280 ± 120 nM.

— doi:10.1101/2025.10.13.682155v1 (biorxiv, 2025)
